Measurements from patent publication US20080125447A1, “Combination Therapy” (priority 2004, published 2008).

Tested on: Calu-6 tumour xenograft
Experiment: Calu-6 tumour xenograft in vivo solid tumour model
Settings: once-daily oral, 28 days

COc1cc2c(Oc3ccc4[nH]c(C)cc4c3F)ncnc2cc1OCCCN1CCCC1 [AZD2171, 4-(4-fluoro-2-methyl-1H-indol-5-yloxy)-6-methoxy-7-(3-(pyrrolidin-1-yl)propoxy)quinazoline]
inhibition of Calu-6 tumour xenograft growth (1.5 mg/kg/day, P<0.01 one-tailed t test): 49%
inhibition of Calu-6 tumour xenograft growth (3 mg/kg/day, P<0.0001 one-tailed t test): 69%
inhibition of Calu-6 tumour xenograft growth (6 mg/kg/day, P<0.0001 one-tailed t test): 91%
